Source: patent publication US20260159520A1, “HETEROBIFUNCTIONAL COMPOUNDS AND METHODS OF TREATING DISEASE” (Halda Therapeutics OpCo, Inc., priority 2022, published 2026)

What was measured:
Format in all cases: cell-based
[1] = tested on: T-Rex 293 cell line SC3 cells having increased expression of androgen receptor protein; assay: Cellular growth inhibition, T-Rex 293 SC3 cells with doxycycline (increased androgen receptor expression); conditions: with 10 ng/mL doxycycline (increased androgen receptor), 72 hours, CellTiter-Glo 2.0
Procedure: (§1) The following types of cells were prepared for this experiment: (i) a T-Rex 293 cell line having increased expression of androgen receptor protein due to exposure to doxycycline and (ii) a T-Rex 293 cell line lacking increased expression of androgen receptor protein. Ability of the test compounds to inhibit proliferation of the foregoing cell types was evaluated according to the procedures set forth below.
(§2) The doxycycline-inducible androgen receptor protein expressing cell line was established using the following protocol: T-Rex 293 cells were purchased from Invitrogen (Cat #R71007) and transfected using Lipofectamine 2000 with the wild-type androgen receptor protein sequence cloned into the pcDNA4/TO vector. Transfected cells were selected using 400 μg/mL Zeocin (Invitrogen Cat #R25001). Following selection, single clones were raised and maintained in Dulbecco's Modified Eagle Medium (DMEM) supplemented with 10% w/w Tetracycline-free fetal bovine serum (FBS) and 250 μg/mL Zeocin. Clones were analyzed for expression of androgen receptor protein in the presence and absence of 10 ng/mL doxycycline (Sigma Cat #D9891), and a single doxycycline-inducible clone (hereinafter “SC3”) was selected for use in downstream assays.
(§3) The SC3 cells were seeded on poly-D-lysine coated, black clear-bottom 384-well plates at 2500/well, in 25 μL Phenol Red Free Dulbecco's Modified Eagle Medium (DMEM) supplemented with 10% w/w charcoal-dextran treated fetal bovine serum (FBS) and 1% w/w pen-strep, with or without 10 ng/mL doxycycline. Pen-Strep is a commercially available mixture of penicillin G and streptomycin, which is used in mammalian cell culture media to prevent bacterial contamination. Phenol Red Free Dulbecco's Modified Eagle Medium (DMEM) supplemented with 10% w/w charcoal-dextran treated fetal bovine serum (FBS) and 1% w/w pen-strep, with or without 10 ng/mL doxycycline is herein referred to as Treatment Medium. Following seeding of cells in the plates, the plates were spun at 300×g for 30 seconds, then equilibrated to room temperature for 30 minutes, and then deposited in a humidified tissue culture incubator maintained at 37° C. with 5% CO2.
(§4) At 24 hours after seeding of the cells, dilutions of test compound were prepared in DMSO and dissolved in Treatment Medium, to achieve a final DMSO concentration of 0.5% w/w, thereby providing the Test Compound Solution. A 25 μL aliquot of the Test Compound Solution was added to cells in the well plates. An equal volume of a solution containing DMSO and Treatment Medium was used as a negative control. Following treatment of cells with Test Compound Solution or said equal volume of a solution containing DMSO and Treatment Medium, the plates were spun at 300×g for 30 seconds, and then left in an incubator for 72 hours.
(§5) At the end of the treatment duration, cell viability was quantified with CellTiter-Glo 2.0 reagent (Promega Cat #G9243). For this purpose, plates were equilibrated to room temperature for 30 minutes, and then 25 μL of CellTiter-Glo 2.0 reagent was added to cells in the plate wells. Plates were then agitated on a shaker for two minutes at 500 rpm and subsequently incubated at room temperature for 10 minutes. Following incubation, the plates were spun at 3000×g for 30 seconds, then sealed with an optical adhesive cover, and luminescence readings were measured with an EnVision Plate Reader.
(§6) Data was normalized using zero luminescence for baseline. A four-parameter non-linear regression curve fit was applied to dose-response data in GraphPad Prism data analysis software to determine the half-maximal growth inhibitory concentration (GI50) for each test compound.

T47D cells = assay: Cellular growth inhibition assay for T47D cells; conditions: Homo sapiens, 72 hours, CellTiter-Glo 2.0
Procedure: (§7) T47D cells were purchased from American Type Cell Culture (ATCC Cat #HTB-133) and then seeded on poly-D-lysine coated, black clear-bottom 384-well plates at 3000/well in 25 μL Dulbecco's Modified Eagle Medium (DMEM) supplemented with 10% w/w Fetal bovine serum (FBS), 0.2 units/mL recombinant human insulin (Gibco Cat #12585014), and 1% w/w Pen-Strep. Pen-Strep is a commercially available mixture of penicillin G and streptomycin, which is used in mammalian cell culture media to prevent bacterial contamination. Dulbecco's Modified Eagle Medium (DMEM) supplemented with 10% w/w fetal bovine serum (FBS), 0.2 units/mL recombinant human insulin, and 1% w/w Pen-Strep is herein referred to as Treatment Medium. Following seeding of cells in the plates, the plates were spun at 300×g for 30 seconds, then equilibrated to room temperature for 30 minutes, and then deposited in a humidified tissue culture incubator maintained at 37° C. with 5% CO2.
as §4
as §5, with “Reader (Perkin Elmer).” for “Reader.”
as §6

VCaP cells = assay: Cellular growth inhibition assay for VCaP cells; conditions: Homo sapiens, 72 hours, CellTiter-Glo 2.0
Procedure: as §7, with “VCaP” for “T47D”, “#CRL2876)” for “#HTB-133)”, “5000/well” for “3000/well”, “(FBS)” for “(FBS), 0.2 units/mL recombinant human insulin (Gibco Cat #12585014),”, “(FBS)” for “(FBS), 0.2 units/mL recombinant human insulin,”
as §4
as §5, with “Reader. Data was normalized using zero luminescence for baseline.” for “Reader.”
A four-parameter non-linear regression curve fit was applied to dose-response data in GraphPad Prism data analysis software to determine the half-maximal growth inhibitory concentration (GI50) for each test compound.

[2] = tested on: T-Rex 293 cell line SC3 cells lacking increased expression of androgen receptor protein; assay: Cellular growth inhibition, T-Rex 293 SC3 cells without doxycycline; conditions: not exposed to doxycycline, 72 hours, CellTiter-Glo 2.0
Procedure: as §1, §2, §3, §4, §5, §6

Question: What does the source list for COc1cc(F)ccc1-c1ccnc2[nH]c(C3CCN(CCOCCOCCOC4CCN(c5ncc(C(=O)N[C@H]6C(C)(C)[C@H](Oc7ccc(C#N)c(Cl)c7)C6(C)C)cn5)CC4)CC3)cc12 [Compound I-67, N-[3-(3-chloro-4-cyano-phenoxy)-2,2,4,4-tetramethyl-cyclobutyl]-2-[4-[2-[2-[2-[4-[4-(4-fluoro-2-methoxy-phenyl)-1H-pyrrolo[2,3-b]pyridin-2-yl]-1-piperidyl]ethoxy]ethoxy]ethoxy]-1-piperidyl]pyrimidine-5-carboxamide]?
Answer: GI50 [1]: 0.1 to 1 µM; GI50 (T47D cells): 1.5 to 3 µM; GI50 (VCaP cells): > 3.5 µM; GI50 [2]: 1 to 3.5 µM

Question: Which results are given for CC(C)n1cc(-c2ccnc3[nH]c(C4CCN(CCOCCOCCOC5CCN(c6ncc(C(=O)N[C@H]7C(C)(C)[C@H](Oc8ccc(C#N)c(Cl)c8)C7(C)C)cn6)CC5)CC4)cc23)ccc1=O [Compound I-77]?
Answer: GI50 [1]: 0.1 to 1 µM; GI50 (T47D cells): 0.5 to 1.5 µM; GI50 (VCaP cells): 0.1 to 1 µM; GI50 [2]: 0.1 to 1 µM

Question: With CCc1cnn2c(NCc3ccc(N4CCN(C5CCN(C6CN(c7ncc(C(=O)N[C@H]8C(C)(C)[C@H](Oc9ccc(C#N)c(Cl)c9)C8(C)C)cn7)C6)CC5)CC4)nc3)cc(N3CCCC[C@H]3CCO)nc12 [Compound I-79] as the compound, how does the GI50 [1] read?
Answer: < 0.1 µM

Question: And the GI50 (T47D cells)?
Answer: < 0.5 µM

Question: What about the GI50 (VCaP cells) of the same compound?
Answer: < 0.1 µM

Question: What about the GI50 [2] of the same compound?
Answer: < 0.1 µM

Question: Which results are given for CCc1cnn2c(NCc3ccc(N4CCC(OCCC5CCN(c6ncc(C(=O)N[C@H]7C(C)(C)[C@H](Oc8ccc(C#N)c(Cl)c8)C7(C)C)cn6)CC5)C4)nc3)cc(N3CCCC[C@H]3CCO)nc12 (some centres unmarked) [Compound I-80]?
Answer: GI50 [1]: < 0.1 µM; GI50 (T47D cells): 0.5 to 1.5 µM; GI50 (VCaP cells): 0.1 to 1 µM; GI50 [2]: > 3.5 µM

Question: What does the source list for CCc1cnn2c(NCc3ccc(N(C)CCCN4CCC(C5CN(c6ncc(C(=O)N[C@H]7C(C)(C)[C@H](Oc8ccc(C#N)c(Cl)c8)C7(C)C)cn6)C5)CC4)nc3)cc(N3CCCC[C@H]3CCO)nc12 [Compound I-82]?
Answer: GI50 [1]: 0.1 to 1 µM; GI50 (T47D cells): 0.5 to 1.5 µM; GI50 (VCaP cells): 0.1 to 1 µM; GI50 [2]: 0.1 to 1 µM

Question: CCc1cnn2c(NCc3ccc(OCCOC4CCN(c5ncc(C(=O)N[C@H]6C(C)(C)[C@H](Oc7ccc(C#N)c(Cl)c7)C6(C)C)cn5)CC4)nc3)cc(N3CCCC(F)(F)C3)nc12 [Compound I-84, N-[3-(3-chloro-4-cyano-phenoxy)-2,2,4,4-tetramethyl-cyclobutyl]-2-[4-[2-[[5-[[[5-(3,3-difluoro-1-piperidyl)-3-ethyl-pyrazolo[1,5-a]pyrimidin-7-yl]amino]methyl]-2-pyridyl]oxy]ethoxy]-1-piperidyl]pyrimidine-5-carboxamide] was tested. Which GI50 [1] did it give?
Answer: 0.1 to 1 µM

Question: And the GI50 (T47D cells)?
Answer: 1.5 to 3 µM

Question: And the GI50 (VCaP cells)?
Answer: > 3.5 µM

Question: What about the GI50 [2] of the same compound?
Answer: > 3.5 µM

Question: How did the GI50 [1] turn out when CCc1cnn2c(NCc3ccc(N(C)CCOC4CCN(C5CN(c6ncc(C(=O)N[C@H]7C(C)(C)[C@H](Oc8ccc(C#N)c(Cl)c8)C7(C)C)cn6)C5)CC4)nc3)cc(N3CCCC[C@H]3CCO)nc12 [Compound I-85] was run?
Answer: 0.1 to 1 µM

Question: What about the GI50 (T47D cells) of the same compound?
Answer: < 0.5 µM

Question: And the GI50 (VCaP cells)?
Answer: 0.1 to 1 µM

Question: And the GI50 [2]?
Answer: 0.1 to 1 µM

Question: Which results are given for CC1(C)[C@H](NC(=O)c2cnc(N3CCC(OCCOCCOCCN4C/C=C/CCOc5cccc(c5)-c5ccnc(n5)Nc5cccc(c5)C4)CC3)nc2)C(C)(C)[C@H]1Oc1ccc(C#N)c(Cl)c1 [Compound I-89]?
Answer: GI50 [1]: 0.1 to 1 µM; GI50 (T47D cells): > 3 µM; GI50 (VCaP cells): > 3.5 µM; GI50 [2]: > 3.5 µM

Question: How did the GI50 [1] turn out when CCc1cnn2c(NCc3ccc(OCCN4CCN(CC5CCN(c6ncc(C(=O)N[C@H]7C(C)(C)[C@H](Oc8ccc(C#N)c(Cl)c8)C7(C)C)cn6)CC5)CC4)nc3)cc(N3CCCC(F)(F)C3)nc12 [Compound I-91] was run?
Answer: 0.1 to 1 µM

Question: What about the GI50 (T47D cells) of the same compound?
Answer: 0.5 to 1.5 µM

Question: What about the GI50 (VCaP cells) of the same compound?
Answer: > 3.5 µM

Question: What about the GI50 [2] of the same compound?
Answer: > 3.5 µM

Question: For CCc1cnn2c(NCc3ccc(OCCCN4CCN(CC5CCN(c6ncc(C(=O)N[C@H]7C(C)(C)[C@H](Oc8ccc(C#N)c(Cl)c8)C7(C)C)cn6)CC5)CC4)nc3)cc(N3CCCC(F)(F)C3)nc12 [Compound I-92], which GI50 [1] is on record?
Answer: 0.1 to 1 µM

Question: What about the GI50 (T47D cells) of the same compound?
Answer: 0.5 to 1.5 µM

Question: What about the GI50 (VCaP cells) of the same compound?
Answer: 0.1 to 1 µM

Question: What about the GI50 [2] of the same compound?
Answer: 1 to 3.5 µM

Question: Which GI50 [1] does the source give for CCc1cnn2c(NCc3ccc(OCCCCN4CCN(CC5CCN(c6ncc(C(=O)N[C@H]7C(C)(C)[C@H](Oc8ccc(C#N)c(Cl)c8)C7(C)C)cn6)CC5)CC4)nc3)cc(N3CCCC(F)(F)C3)nc12 [Compound I-93] here?
Answer: 0.1 to 1 µM

Question: What about the GI50 (T47D cells) of the same compound?
Answer: 0.5 to 1.5 µM

Question: And the GI50 (VCaP cells)?
Answer: > 3.5 µM

Question: And the GI50 [2]?
Answer: > 3.5 µM
